The values below come from patent publication US9498483B2, “2,3,5-trisubstituted thiophene compounds and uses thereof” (priority 2010, dated 2016).

Assay [1] deals with HCV replicon I389luc-ubi-neo/NS3-3′/ET in ET (Huh-lucubineo-ET) cells. Description: Replicon assay (Biological Example 2), luciferase readout. In kind it is cell-based. As to conditions: Hepatitis C virus. The procedure: A cell line, ET (Huh-lucubineo-ET) was used for screening of compounds for inhibiting HCV RNA dependent RNA polymerase. The ET cell line was stably transfected with RNA transcripts harboring a I389luc-ubi-neo/NS3-3′/ET; replicon with firefly luciferase-ubiquitin-neomycin phosphotransferase fusion protein and EMCV-IRES driven NS3-5B polyprotein containing the cell culture adaptive mutations (E1202G; T12801; K1846T) (Krieger at al, 2001 and unpublished). The ET cells were grown in DMEM (Dulbeco's Modified Eagle's Medium), supplemented with 10% fetal calf serum, 2 mM Glutamine, Penicillin (100 IU/mL)/Streptomycin (100 μg/mL), 1× nonessential amino acids, and 250 μg/mL G418 (“Geneticin”). Reagents were all available through Life Technologies (Bethesda, Md.). The cells were plated at 0.5-1.0×10^4 cells/well in the 96 well plates and incubated for 24 hrs before adding test compound. The compounds were added to the cells to achieve a final concentration of 0.1 nM to 50 μM and a final DMSO (dimethylsulfoxide) concentration of 0.5%. Luciferase activity was measured 48 hours later by adding a lysis buffer and the substrate (Catalog number Glo-lysis buffer E2661 and Bright-Glo luciferase system E2620 Promega, Madison, Wis.). Cells should not be too confluent during the assay. Percent inhibition of replication data was plotted relative to no compound control. To determine the EC50 (effective concentration at which 50% of the maximum inhibition was observed), a 10 point, 3-fold serial dilution for each compound was used, which spans a concentration range of […]. EC50 values were calculated by fitting % inhibition at each concentration to the following equation: % inhibition=100%/[(EC50/[I])^b+1] where b was Hill's coefficient.
In other aspects the EC50 was equal to or less than 10 μM. In still other aspects the EC50 was equal to or less than 1 μM.
On the technique in general: A replicon is a self-replicating genome or part of one, used to study replication in cells.

A further assay has as its target T1, HCV polymerase (Hepatitis C virus genotype 1b, UniProt Q9WMX2).
T1 construct: (His)6 (C); made in house; host or cells: XL-1 cells (E. coli, by own knowledge)
Description: Polymerase assay of Biological Example 1 (IC50 values of Table 3). In kind it is biochemical. As to conditions: IC50 values of Table 3, polymerase assay of Biological Example 1; read-out: NS5B-enzyme3. An excerpt: A number of assays have been published to assess these activities. A general method that assesses the gross increase of HCV virus in culture was disclosed in U.S. Pat. No. 5,738,985 to Miles et al. In vitro assays have been reported in Ferrari et al. Jnl. of Vir., 73:1649-1654, 1999; Ishii et al., Hepatology, 29:1227-1235, 1999; Lohmann et al., Jnl of Bio. Chem., 274:10807-10815, 1999; and Yamashita et al., Jnl. of Bio. Chem., 273:15479-15486, 1998.
WO 97/12033, filed on Sep. 27, 1996, by Emory University, listing C. Hagedorn and A. Reinoldus as inventors, which claims priority to U.S. Provisional Patent Application Ser. No. 60/004,383, filed on September 1995, described an HCV polymerase assay that can be used to evaluate the activity of the of the compounds described herein. Another HCV polymerase assay has been reported by Bartholomeusz, et al., Hepatitis C Virus (HCV) RNA polymerase assay using cloned HCV non-structural proteins; Antiviral Therapy 1996:1 (Supp 4) 18-24.

Where [2] appears, read: ET cells, luciferase activity 48 hours after compound.

pIC50: −log10 of the molar value. Some results are limits rather than exact numbers.

Take `C[C@@H]1CC[C@H](C)N1c1ccc(S(=O)(=O)N2CC(=O)N(c3cc(-c4ccccc4)sc3C(=O)O)[C@H](C3CCCCC3)C2)cn1` [Compound 164, 3-{(R)-2-Cyclohexyl-4-[6-((2S,5R)-2,5-dimethyl-pyrrolidin-1-yl)-pyridine-3-sulfonyl]-6-oxo-piperazin-1-yl}-5-phenyl-thiophene-2-carboxylic acid]: the pIC50 in assay [1] (setting [2]) is not below 7.00; at HCV polymerase it was 9.00.
As for `CC(C)(C)C#Cc1cc(N2C(=O)CN(S(=O)(=O)C3CC3)C[C@H]2C2CCCCC2)c(C(=O)O)s1` [Compound 245, 3-((R)-2-Cyclohexyl-4-cyclopropanesulfonyl-6-oxo-piperazin-1-yl)-5-(3,3-dimethyl-but-1-ynyl)-thiophene-2-carboxylic acid], the pIC50 is 5.30 to 7.00 in assay [1] (between 100 nM and 5.0 uM); 8.30 at HCV polymerase.
In the same order, the values of `Cc1ccccc1S(=O)(=O)N1CC(=O)N(c2cc(-c3ccccc3)sc2C(=O)O)C(C2CCCCC2)C1` (stereo not drawn) [Compound 58, 3-[2-Cyclohexyl-6-oxo-4-(toluene-2-sulfonyl)-piperazin-1-yl]-5-phenyl-thiophene-2-carboxylic acid] are 5.30 to 7.00 and 7.06.
Turning to `CC(C)(C)C#Cc1cc(N2C(=O)CN(S(=O)(=O)c3cccc(Cl)c3)C[C@H]2C2CCCCC2)c(C(=O)O)s1` [Compound 242, 3-[(R)-4-(3-Chlorobenzenesulfonyl)-2-cyclohexyl-6-oxo-piperazin-1-yl]-5-(3,3-dimethyl-but-1-ynyl)-thiophene-2-carboxylic acid], the pIC50 in assay [1] (between 100 nM and 5.0 uM) is 5.30 to 7.00; at HCV polymerase, 8.30.
For the compound `CC(C)(C)C#Cc1cc(N2C(=O)C(O)(CCCO)CCC2C2CCCCC2)c(C(=O)O)s1` (stereo not drawn) [Compound 11, 3-[6-Cyclohexyl-3-hydroxy-3-(3-hydroxy-propyl)-2-oxo-piperidin-1-yl]-5-(3,3-dimethyl-but-1-ynyl)-thiophene-2-carboxylic acid], the pIC50 in assay [1] (setting [2]) is not below 7.00; on HCV polymerase it was 8.10.
The corresponding values for `CCC1(CC)CN(c2ccc(S(=O)(=O)N3CC(=O)N(c4cc(-c5ccccc5)sc4C(=O)O)[C@H](C4CCCCC4)C3)cn2)CCO1` [Compound 218, 3-{(R)-2-Cyclohexyl-4-[6-(2,2-diethyl-morpholin-4-yl)-pyridine-3-sulfonyl]-6-oxo-piperazin-1-yl}-5-phenyl-thiophene-2-carboxylic acid] are not below 7.00 and 9.00.
In the same order, the values of `CN1CCN(C(=O)c2ccc(-c3ccc(S(=O)(=O)N4CC(=O)N(c5cc(-c6ccccc6)sc5C(=O)O)[C@H](C5CCCCC5)C4)cn3)cc2)CC1` [Compound 202, 3-((R)-2-Cyclohexyl-4-{6-[4-(4-methyl-piperazine-1-carbonyl)-phenyl]-pyridine-3-sulfonyl)-6-oxo-piperazin-1-yl)-5-phenyl-thiophene-2-carboxylic acid] are not below 7.00 and 9.00.
In the same order, the values of `CC(C)(C)C#Cc1cc(N2C(=O)C(O)CCC2C2CCCCC2)c(C(=O)O)s1` (stereo not drawn) [Compound 313, 3-(6-Cyclohexyl-3-hydroxy-2-oxo-piperidin-1-yl)-5-(3,3-dimethyl-but-1-ynyl)-thiophene-2-carboxylic acid] are not below 7.00 and 7.50.
For `O=C(O)c1sc(-c2ccccc2)cc1N1C(=O)CN(S(=O)(=O)c2ccc(N3CCN[C@H](CO)C3)nc2)C[C@H]1C1CCCCC1` [Compound 139, 3-{(R)-2-Cyclohexyl-4-[6-((S)-3-hydroxymethyl-piperazin-1-yl)-pyridine-3-sulfonyl]-6-oxo-piperazin-1-yl}-5-phenyl-thiophene-2-carboxylic acid], the pIC50 is 5.30 to 7.00 in assay [1] (between 100 nM and 5.0 uM); 9.00 at HCV polymerase.
In the case of `CCc1ccc(S(=O)(=O)N2CC(=O)N(c3cc(C#CC(C)(C)C)sc3C(=O)O)[C@H](C3CCCCC3)C2)cc1` [Compound 256, 3-[(R)-2-Cyclohexyl-4-(4-ethyl-benzenesulfonyl)-6-oxo-piperazin-1-yl]-5-(3,3-dimethyl-but-1-ynyl)-thiophene-2-carboxylic acid], the pIC50 is not below 7.00 in assay [1] (setting [2]) and 9.00 at HCV polymerase.
In the case of `Cc1ccc(-c2cc(N3C(=O)CN(S(=O)(=O)c4ccc(N5C[C@H]6C[C@@H]5CO6)nc4)C[C@H]3C3CCCCC3)c(C(=O)O)s2)cc1` [Compound 289, 3-{(R)-2-Cyclohexyl-4-[(1R,4R)-6-(2-oxa-5-aza-bicyclo[2.2.1]hept-5-yl)-pyridine-3-sulfonyl]-6-oxo-piperazin-1-yl}-5-p-tolyl-thiophene-2-carboxylic acid], the pIC50 in assay [1] (setting [2]) is not below 7.00; at HCV polymerase, 9.00.
The corresponding values for `CC(C)(C)C#Cc1cc(N2C(=O)CN(S(=O)(=O)c3ccc(F)cc3)C[C@H]2C2CCCCC2)c(C(=O)O)s1` [Compound 243, 3-[(R)-2-Cyclohexyl-4-(4-fluoro-benzenesulfonyl)-6-oxo-piperazin-1-yl]-5-(3,3-dimethyl-but-1-ynyl)-thiophene-2-carboxylic acid] are not below 7.00 and 8.70.
In the case of `O=C(O)c1sc(-c2ccccc2)cc1N1C(=O)CN(S(=O)(=O)c2cccc(F)c2)CC1C1CCCCC1` (stereo not drawn) [Compound 104, 3-[2-Cyclohexyl-4-(3-fluoro-benzenesulfonyl)-6-oxo-piperazin-1-yl]-5-phenyl-thiophene-2-carboxylic acid], the pIC50 was 5.30 to 7.00 in assay [1] (between 100 nM and 5.0 uM); 7.68 at HCV polymerase.
`O=C(O)c1sc(-c2ccccc2)cc1N1C(=O)CN(S(=O)(=O)c2ccc(-c3cncnc3)nc2)C[C@H]1C1CCCCC1` [Compound 206, 3-[(R)-2-Cyclohexyl-6-oxo-4-(6-pyrimidin-5-yl-pyridine-3-sulfonyl)-piperazin-1-yl]-5-phenyl-thiophene-2-carboxylic acid]: the pIC50 was 5.30 to 7.00 in assay [1] (between 100 nM and 5.0 uM); 9.00 on HCV polymerase.
In the case of `CCN1CCN(c2ccc(S(=O)(=O)N3CC(=O)N(c4cc(-c5ccccc5)sc4C(=O)O)[C@H](C4CCCCC4)C3)cn2)CC1` [Compound 148, 3-{(R)-2-Cyclohexyl-4-[6-(4-ethyl-piperazin-1-yl)-pyridine-3-sulfonyl]-6-oxo-piperazin-1-yl}-5-phenyl-thiophene-2-carboxylic acid], the results for the pIC50 (in assay [1] (setting [2]); on HCV polymerase) were not below 7.00 and 8.70, respectively.
For the compound `O=C(O)c1sc(-c2ccccc2)cc1N1C(=O)CN(S(=O)(=O)c2ccc(N3CC4CC3CO4)nc2)C[C@H]1C1CCCCC1` (stereo partly drawn) [Compound 217, 3-{(R)-2-Cyclohexyl-4-[6-(2-oxa-5-aza-bicyclo[2.2.1]hept-5-yl)-pyridine-3-sulfonyl]-6-oxo-piperazin-1-yl}-5-phenyl-thiophene-2-carboxylic acid], the pIC50 in assay [1] (setting [2]) is not below 7.00; on HCV polymerase, 9.00.
Take `O=C(O)c1sc(-c2ccccc2)cc1N1C(=O)CN(S(=O)(=O)c2cnc(N3CCCC3)c(Cl)c2)C[C@H]1C1CCCCC1` [Compound 169]: the pIC50 in assay [1] (setting [2]) is not below 7.00; at HCV polymerase it was 8.52.
Regarding `CC(C)Nc1ccc(S(=O)(=O)N2CC(=O)N(c3cc(-c4ccccc4)sc3C(=O)O)C(C3CCCCC3)C2)cn1` (stereo not drawn) [Compound 85, 3-[2-Cyclohexyl-4-(6-isopropylamino-pyridine-3-sulfonyl)-6-oxo-piperazin-1-yl]-5-phenyl-thiophene-2-carboxylic acid], the pIC50 in assay [1] (setting [2]) was not below 7.00; on HCV polymerase, 8.70.
